Laboratory results from ChEMBL document CHEMBL1130637, “Pyrrolnitrin and related pyrroles endowed with antibacterial activities against Mycobacterium tuberculosis” (1998).
In brackets after ≈: the same amount, converted by molar mass.

Key:
Vero [1] = experiment: In vitro cytotoxicity against VERO cells.; format: functional, Chlorocebus sabaeus
[2] = tested on: Mycobacterium tuberculosis; experiment: Antimycobacterial activity against Mycobacterium tuberculosis CIP 103471; format: functional
Mycobacterium avium [3] = experiment: Antimycobacterial activity against Mycobacterium avium CIP 103317; format: functional
Mycobacterium marinum [4] = experiment: Antimycobacterial activity against Mycobacterium marinum CIP 6423; format: functional
[5] = tested on: Mycolicibacterium smegmatis; experiment: Antibacterial activity against Mycobacterium smegmatis CIP 103599.; format: functional
Mycobacterium gordonae [6] = experiment: Antimycobacterial activity against Mycobacterium gordonae CIP 6427; format: functional
Mycobacterium marinum [7] = experiment: Compound was tested for anti-mycobacterial activity against Mycobacterium marinum CIP 6423.; format: functional
[8] = tested on: Mycobacterium tuberculosis; experiment: Compound was tested for anti-mycobacterial activity against Mycobacterium tuberculosis CIP 103471; format: functional
Vero [9] = experiment: Compound was tested for cytotoxicity against VERO cells; format: functional, Chlorocebus sabaeus
Mycobacterium avium [10] = experiment: Compound was tested for anti-mycobacterial activity against Mycobacterium avium CIP 103317; format: functional
Mycobacterium gordonae [11] = experiment: Compound was tested for anti-mycobacterial activity against Mycobacterium gordonae CIP 6427; format: functional

| Compound | MTD50 (Vero [1]) [µg/mL] | MIC [2] [µg/mL] | MIC (Mycobacterium avium [3]) [µg/mL] | MIC (Mycobacterium marinum [4]) [µg/mL] | MIC [5] [µg/mL] | MIC (Mycobacterium gordonae [6]) [µg/mL] | MIC (Mycobacterium marinum [7]) [µg/mL] | MIC [8] [µg/mL] | MTD50 (Vero [9]) [µg/mL] | MIC (Mycobacterium avium [10]) [µg/mL] | MIC (Mycobacterium gordonae [11]) [µg/mL] |
| --- | --- | --- | --- | --- | --- | --- | --- | --- | --- | --- | --- |
| CCOC(=O)c1cn(Cc2ccccc2)cc1-c1ccc(OC)cc1 | 8 | 8 (≈ 23.9 µM) | > 16 | > 16 | > 16 | > 16 | – | – | – | – | – |
| Cn1cc(-c2ccccc2Cl)c([N+](=O)[O-])c1 | – | > 16 | > 16 | > 16 | > 16 | > 16 | – | – | – | – | – |
| CCOC(=O)c1cn(Cc2ccc(F)cc2)cc1-c1ccccc1 | 4 | > 16 | 16 (≈ 49.5 µM) | > 16 | > 16 | > 16 | – | – | – | – | – |
| NC(=O)c1c[nH]cc1-c1ccc(Cl)cc1 | 16 | > 16 | > 16 | > 16 | > 16 | > 16 | – | – | – | – | – |
| Cn1cc(-c2ccc(Cl)cc2)c([N+](=O)[O-])c1 | – | > 16 | > 16 | > 16 | > 16 | > 16 | – | – | – | – | – |
| COc1ccc(-c2c[nH]cc2[N+](=O)[O-])c(Cl)c1 | 2 | > 16 | 16 (≈ 63.3 µM) | > 16 | > 16 | > 16 | – | – | – | – | – |
| NNC(=O)c1c[nH]cc1-c1ccc(Cl)cc1 | 16 | > 16 | > 16 | > 16 | > 16 | > 16 | – | – | – | – | – |
| O=C(O)c1cn(Cc2ccc(Cl)cc2)cc1-c1ccc(Cl)cc1 | 8 | 16 (≈ 46.2 µM) | 16 (≈ 46.2 µM) | > 16 | > 1 | > 16 | – | – | – | – | – |
| COc1ccc(-c2cn(C)cc2[N+](=O)[O-])c(Cl)c1 | 2 | > 16 | > 16 | > 16 | > 16 | > 16 | – | – | – | – | – |
| CCOC(=O)c1cn(C)cc1-c1ccc(Cl)cc1 | – | > 16 | > 16 | > 16 | > 16 | > 16 | – | – | – | – | – |
| O=[N+]([O-])c1c[nH]cc1-c1cccc(Cl)c1Cl | 1 | 16 (≈ 62.2 µM) | > 16 | – | > 16 | > 16 | > 16 | – | – | – | – |
| O=[N+]([O-])c1c[nH]cc1-c1cc(Cl)cc(Cl)c1 | 1 | 8 (≈ 31.1 µM) | 16 (≈ 62.2 µM) | > 16 | > 16 | > 16 | – | – | – | – | – |
| O=[N+]([O-])c1c[nH]cc1-c1ccc(Cl)cc1Cl | 1 | 1 (≈ 3.89 µM) | 16 (≈ 62.2 µM) | > 16 | > 16 | > 16 | – | – | – | – | – |
| O=[N+]([O-])c1c[nH]cc1-c1ccc(Cl)c(Cl)c1 | 2 | 8 (≈ 31.1 µM) | 16 (≈ 62.2 µM) | > 16 | > 16 | > 16 | – | – | – | – | – |
| Cn1cc(-c2ccc(Cl)cc2Cl)c([N+](=O)[O-])c1 | – | > 16 | > 16 | > 16 | > 16 | > 16 | – | – | – | – | – |
| CCOC(=O)c1cn(C)cc1-c1ccc(OC)cc1 | – | – | > 16 | > 16 | > 16 | > 16 | – | > 16 | 4 | – | – |
| O=[N+]([O-])c1c[nH]cc1-c1ccccc1Cl | – | > 16 | > 16 | > 16 | > 16 | > 16 | – | – | – | – | – |
| CCOC(=O)c1c[nH]cc1-c1ccc(Cl)cc1Cl | 2 | > 16 | > 16 | > 16 | > 16 | > 16 | – | – | – | – | – |
| O=[N+]([O-])c1c(Cl)cccc1-c1c[nH]cc1Cl [PYRROLNITRIN] | 8 | – | – | > 16 | 16 (≈ 62.2 µM) | – | – | 4 (≈ 15.6 µM) | – | 8 (≈ 31.1 µM) | > 16 |
| NC(=O)c1c[nH]cc1-c1ccc(Cl)cc1Cl | 0.125 | > 16 | 16 (≈ 62.7 µM) | > 16 | > 16 | > 16 | – | – | – | – | – |
| NNC(=O)c1ccncc1 [ISONIAZID] | 32 | 0.25 (≈ 1.82 µM) | 32 (≈ 233 µM) | 16 (≈ 117 µM) | 64 (≈ 467 µM) | 32 (≈ 233 µM) | – | – | – | – | – |
| O=[N+]([O-])c1c[nH]cc1-c1c(Cl)cccc1Cl | – | > 16 | > 16 | > 16 | > 16 | > 16 | – | – | – | – | – |
| OCc1cn(Cc2ccccc2Cl)cc1-c1ccc(Cl)cc1 | 15 | 8 (≈ 24.1 µM) | > 16 | > 16 | > 16 | > 16 | – | – | – | – | – |
| Cn1cc(C(=O)O)c(-c2ccc(Cl)cc2)c1 | – | > 16 | 16 (≈ 67.9 µM) | > 16 | > 16 | > 16 | – | – | – | – | – |
| O=[N+]([O-])c1c[nH]cc1-c1cccc(Cl)c1 | – | > 16 | > 16 | > 16 | > 16 | > 16 | – | – | – | – | – |
| CCOC(=O)c1cn(Cc2ccc(F)cc2)cc1-c1ccc(OC)cc1 | 2 | 16 (≈ 45.3 µM) | > 16 | > 16 | > 16 | > 16 | – | – | – | – | – |
| CCOC(=O)c1c[nH]cc1-c1ccc(Cl)cc1 | 4 | 16 (≈ 64.1 µM) | 4 (≈ 16 µM) | > 16 | > 16 | > 16 | – | – | – | – | – |
| O=[N+]([O-])c1c[nH]cc1-c1ccc(Cl)cc1 | – | > 16 | > 16 | > 16 | > 16 | > 16 | – | – | – | – | – |
| CN[C@@H]1[C@H](O[C@H]2[C@H](O[C@H]3[C@H](O)[C@@H](O)[C@H](N=C(N)N)[C@@H](O)[C@@H]3N=C(N)N)O[C@@H](C)[C@]2(O)C=O)O[C@@H](CO)[C@H](O)[C@H]1O [STREPTOMYCIN] | 128 | 0.5 (≈ 0.86 µM) | 8 (≈ 13.8 µM) | 32 (≈ 55 µM) | 8 (≈ 13.8 µM) | 16 (≈ 27.5 µM) | – | – | – | – | – |
